In the Kinase Knowledgebase extract (Sharma et al. 2016):

Tests used:
PIK3CB (Human) = PIK3CB (Human) (UniProt P42338); experiment: Inhibition of PIK3CB Kinase Activity
PIK3CA (human) = PIK3CA (human) (UniProt P42336); experiment: Inhibition of PIK3CA Kinase Activity
Chain of PIK3CA (human) (P42336 whole entry, looked up): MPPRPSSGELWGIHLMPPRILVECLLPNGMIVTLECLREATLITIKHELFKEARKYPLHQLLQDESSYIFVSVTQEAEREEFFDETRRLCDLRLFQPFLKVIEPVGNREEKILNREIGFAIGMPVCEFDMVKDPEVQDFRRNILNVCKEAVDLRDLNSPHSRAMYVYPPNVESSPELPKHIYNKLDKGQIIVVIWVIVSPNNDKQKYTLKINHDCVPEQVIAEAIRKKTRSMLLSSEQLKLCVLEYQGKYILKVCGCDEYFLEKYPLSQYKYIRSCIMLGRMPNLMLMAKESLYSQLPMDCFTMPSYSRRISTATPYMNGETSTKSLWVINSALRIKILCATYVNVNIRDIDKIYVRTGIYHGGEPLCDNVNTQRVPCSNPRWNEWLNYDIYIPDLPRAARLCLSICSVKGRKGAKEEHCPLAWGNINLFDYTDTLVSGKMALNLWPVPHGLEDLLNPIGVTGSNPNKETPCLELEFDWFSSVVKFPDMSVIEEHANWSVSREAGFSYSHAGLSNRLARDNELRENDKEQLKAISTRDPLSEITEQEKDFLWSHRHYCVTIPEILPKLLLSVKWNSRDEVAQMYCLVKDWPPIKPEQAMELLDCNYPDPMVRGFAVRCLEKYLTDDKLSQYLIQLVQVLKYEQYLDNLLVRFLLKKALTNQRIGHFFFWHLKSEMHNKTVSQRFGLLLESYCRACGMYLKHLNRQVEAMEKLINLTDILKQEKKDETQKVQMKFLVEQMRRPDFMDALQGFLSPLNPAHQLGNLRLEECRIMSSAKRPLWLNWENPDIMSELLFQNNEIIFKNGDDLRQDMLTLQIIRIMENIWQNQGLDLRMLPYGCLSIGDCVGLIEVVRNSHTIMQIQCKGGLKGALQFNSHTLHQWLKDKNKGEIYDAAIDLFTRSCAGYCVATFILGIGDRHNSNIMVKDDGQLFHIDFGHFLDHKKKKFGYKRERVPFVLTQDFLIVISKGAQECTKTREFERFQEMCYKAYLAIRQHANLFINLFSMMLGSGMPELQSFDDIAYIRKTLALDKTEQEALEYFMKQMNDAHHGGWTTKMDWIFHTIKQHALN

Chain of PIK3CB (Human) (P42338 whole entry, looked up): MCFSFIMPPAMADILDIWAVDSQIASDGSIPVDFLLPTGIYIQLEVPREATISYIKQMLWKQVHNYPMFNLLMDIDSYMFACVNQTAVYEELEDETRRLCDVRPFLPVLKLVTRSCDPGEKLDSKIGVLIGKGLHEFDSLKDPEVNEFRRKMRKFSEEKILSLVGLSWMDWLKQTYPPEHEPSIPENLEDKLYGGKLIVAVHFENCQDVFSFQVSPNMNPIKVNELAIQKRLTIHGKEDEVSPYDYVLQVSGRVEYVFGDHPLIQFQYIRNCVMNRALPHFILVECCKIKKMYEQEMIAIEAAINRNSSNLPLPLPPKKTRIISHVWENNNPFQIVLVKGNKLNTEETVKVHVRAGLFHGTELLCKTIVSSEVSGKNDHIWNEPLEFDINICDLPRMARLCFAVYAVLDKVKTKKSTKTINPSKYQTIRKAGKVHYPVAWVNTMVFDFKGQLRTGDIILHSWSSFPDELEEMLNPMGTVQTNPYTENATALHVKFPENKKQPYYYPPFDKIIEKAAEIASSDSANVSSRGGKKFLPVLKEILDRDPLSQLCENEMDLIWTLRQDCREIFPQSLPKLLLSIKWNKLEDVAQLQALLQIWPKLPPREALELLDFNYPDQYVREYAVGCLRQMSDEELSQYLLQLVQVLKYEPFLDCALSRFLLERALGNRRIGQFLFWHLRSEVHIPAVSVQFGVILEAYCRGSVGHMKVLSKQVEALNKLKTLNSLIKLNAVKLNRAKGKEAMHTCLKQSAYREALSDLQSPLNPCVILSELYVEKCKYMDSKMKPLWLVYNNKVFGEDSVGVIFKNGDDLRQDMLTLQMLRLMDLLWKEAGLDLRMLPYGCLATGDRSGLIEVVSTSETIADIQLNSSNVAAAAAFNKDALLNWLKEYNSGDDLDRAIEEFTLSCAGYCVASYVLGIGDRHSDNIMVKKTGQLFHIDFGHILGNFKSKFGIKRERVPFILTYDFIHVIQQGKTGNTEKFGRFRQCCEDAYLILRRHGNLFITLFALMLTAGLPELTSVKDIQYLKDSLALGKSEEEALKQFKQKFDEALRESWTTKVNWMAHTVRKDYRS

| IC50 (PIK3CB (Human)) [nM] | IC50 (PIK3CA (human)) [nM] | Compound |
| --- | --- | --- |
| 13300 |  | CC(=O)Nc1nc2ccc(-c3cccc(N)c3)nc2s1 |
| 11000 |  | CC(=O)Nc1nc2ccc(-c3ccnc(OCCCN4CCOCC4)n3)cc2s1 |
| 2870 | 169 | CC(=O)Nc1nc2ccc(-c3cnc(Cl)c(OC4CCOC4)c3)cc2s1 (stereo not drawn) |
| 13300 |  | COc1ccc(COc2nccc(-c3ccc4nc(NC(C)=O)sc4c3)n2)cc1 |
| 472 | 44.1 | CC(=O)Nc1nc2ccc(-c3cnc(Cl)c(OC(C)C)c3)cc2s1 |
| 13300 |  | COc1cc(-c2ccc3nc(NC(C)=O)sc3c2)cnc1Br |
| 1610 | 2620 | CC(=O)Nc1nc2ccc(-c3ccnc(N4CCC[C@@H]4c4ccccc4)n3)cc2s1 |
| 778 | 1560 | CC(=O)Nc1nc2ccc(-c3ccnc(N4CCC[C@@H]4c4ccccc4C)n3)cc2s1 |
| 13300 |  | CC(=O)Nc1nc2ccc(-c3cnc(Cl)c(F)c3)cc2s1 |
